Results: patent publication US10501492B2, “Antibiotic compounds” (priority 2009, dated 2019)

Tests used:
E. faecium = assay: MIC determination, Macro-broth dilution method (NCCLS); type: cell-based, Enterococcus faecium; settings: for Minimal Inhibitory Concentration: E. faecium, R-2 (VRE) (Table 5)
Text: (§1) The in-vitro potency was established by minimum inhibitory concentration (MIC) determinations of the compounds of Formula I(a) and Formula I(b) against bacterial strains, by using the Macro-broth dilution method as per National Committee for Clinical Laboratory Standards (2000) guidelines (Methods for Dilution Antimicrobial Susceptibility Tests for Bacteria that Grow Aerobically—Fifth Edition: Approved Standard M7-A5. NCCLS, Wayne, Pa., USA). Mueller-Hinton broth was used as nutrient medium for the assay, unless stated otherwise. PM181104 (PCT publication no. WO2007119201) was used as known standard in all in-vitro experiments. For preparation of the stock solution the compounds of Formula I(a) and Formula I(b) were dissolved in chloroform (5% of the total required volume) and diluted using methanol (95% of the total required volume).

[1] = Solubility (physical properties)
M. tuberculosis H37Rv = assay: Antimycobacterial activity, Luciferase reporter phage assay; type: cell-based, Mycobacterium tuberculosis; settings: 72 hours
Bacillus cereus (121) = assay: MIC determination, Macro-broth dilution method (NCCLS); type: cell-based
Text: as §1

[2] = tested on: Bacillus subtilis ATCC 6633 (123); assay: as above; type: cell-based
Text: as §1

[3] = tested on: Bacillus megaterium FH1127 (124); assay: as above; type: cell-based
Text: as §1

S. aureus = assay: as above; type: cell-based, Staphylococcus aureus
Text: as §1

S. epidermidis = assay: as above; type: cell-based, Staphylococcus epidermidis
Text: as §1

[4] = in chloroform, ethyl acetate, methanol
[5] = S. aureus 209P (MSSA) (Table 5)
[6] = S. aureus E710, (MRSA) (Table 5)

For C=C(NC(=O)C(=C)NC(=O)c1csc(C2=NC3c4csc(n4)C4NC(=O)c5csc(n5)C(C(C)(O)C(C)O)NC(=O)C5CSC(=N5)/C(=C\C)NC(=O)C(C(C)O)NC(=O)c5csc(n5)C3(CC2)NC(=O)C(C)NC(=O)C(=C)NC(=O)C(C)NC(=O)C(C(C)C)NC2C=Cc3c(C(C)O)cc(nc3C2O)C(=O)OC4C)n1)C(N)=O (stereo not shown) [Compound of Formula I(a)], the MIC (E. faecium; E. faecium C1 VRE 26) was 0.25 µg/mL, the MIC (E. faecium; E. faecium C1 VRE 27) was 0.25 µg/mL and the MIC (E. faecium; E. faecium C1 VRE 28) was 0.125 µg/mL. The MIC (E. faecium; E. faecium C1 VRE 31) was 0.5 µg/mL, the MIC (E. faecium; E. faecium C1 VRE 33) was 0.125 µg/mL and the MIC (E. faecium; E. faecium C1 VRE 34) was 0.25 µg/mL. It also gave an MIC (E. faecium; E. faecium KEM VRE 1) of 0.25 µg/mL, an MIC (E. faecium; E. faecium KEM VRE 2) of 0.5 µg/mL and an MIC (E. faecium; E. faecium KEM VRE 3) of 0.25 µg/mL. The MIC (E. faecium; E. faecium KEM VRE 4) was 0.5 µg/mL, the MIC (E. faecium; E. faecium KEM VRE 5) was 0.25 µg/mL and the MIC (E. faecium; E. faecium R-2 (VRE) (Table 4)) was 0.25 µg/mL. The “Minimal Inhibitory Concentration” value (E. faecium) was 0.125 µg/mL, the MIC (E. faecium; Enterococcus faecium, VSE (322)) was 0.125 µg/mL and the Solubility [1, 4] was “Soluble”. The Solubility ([1]; in water) was “insoluble”, the “% reduction in RLU” value (M. tuberculosis H37Rv; 0.5 μg/mL) was 36.36% and the “% reduction in RLU” value (M. tuberculosis H37Rv; 5 μg/mL) was 77.17%. The “% reduction in RLU” value (M. tuberculosis H37Rv; 10 μg/mL) was 83.76%, the MIC (Bacillus cereus (121)) was 0.031 µg/mL and the MIC [2] was 0.031 µg/mL. For the same compound, the MIC [3] was 0.125 µg/mL, the “Minimal Inhibitory Concentration” value (S. aureus; [5]) was 0.064 to 0.125 µg/mL and the MIC (S. aureus; S. aureus 209 P, MSSA (Table 4)) was 0.063 µg/mL. For the same compound, the MIC (S. aureus; S. aureus 503, MRSA, 62) was over 1 µg/mL, the MIC (S. aureus; S. aureus 789, MRSA, 64) was over 1 µg/mL and the MIC (S. aureus; S. aureus ATCC 33591, MRSA) was 0.125 µg/mL. It also gave an MIC (S. aureus; S. aureus C1 MRSA 2) of 0.25 µg/mL, an MIC (S. aureus; S. aureus C1 MRSA 3) of 0.25 µg/mL and an MIC (S. aureus; S. aureus C1 MRSA 5) of 0.25 µg/mL. For the same compound, the MIC (S. aureus; S. aureus C1 MRSA 7) was 0.125 µg/mL, the MIC (S. aureus; S. aureus C1 MRSA 8) was 0.25 µg/mL and the MIC (S. aureus; S. aureus C1 MRSA 9) was 0.25 µg/mL. The MIC (S. aureus; S. aureus C1 MRSA 10) was 0.25 µg/mL, the MIC (S. aureus; S. aureus C1 MRSA 13) was 0.25 µg/mL and the MIC (S. aureus; S. aureus C1 MRSA 16) was 0.25 µg/mL. It also gave an MIC (S. aureus; S. aureus C1 MRSA 17) of 0.125 µg/mL, an MIC (S. aureus; S. aureus C1 MRSA 20) of 0.125 µg/mL and an MIC (S. aureus; S. aureus C1 MRSA 21) of 0.125 µg/mL. It also gave an MIC (S. aureus; S. aureus C1 MRSA 22) of 0.25 µg/mL, an MIC (S. aureus; S. aureus C1 MRSA 23) of 0.016 µg/mL and an MIC (S. aureus; S. aureus C1 MRSA 24) of 0.25 µg/mL. The MIC (S. aureus; S. aureus C1 MRSA 25) was 0.15 µg/mL, the “Minimal Inhibitory Concentration” value (S. aureus; [6]) was 0.125 µg/mL and the MIC (S. aureus; S. aureus E710, MRSA (Table 4)) was 0.125 µg/mL. For the same compound, the MIC (S. aureus; S. aureus E712, MRSA Erythro^R, 59) was 0.25 µg/mL, the MIC (S. aureus; S. aureus KEM MRSA 1) was 0.25 µg/mL and the MIC (S. aureus; S. aureus KEM MRSA 2) was 0.25 µg/mL. For the same compound, the MIC (S. aureus; S. aureus KEM MRSA 3) was 0.25 µg/mL, the MIC (S. aureus; S. aureus KEM MRSA 4) was 0.125 µg/mL and the MIC (S. aureus; S. aureus KEM MRSA 5) was 0.125 µg/mL. For the same compound, the MIC (S. aureus; S. aureus MRSA 3 lilavati) was 0.125 µg/mL, the MIC (S. aureus; S. aureus Misk MRSA 35) was 0.125 µg/mL and the MIC (S. aureus; S. aureus Misk MRSA 37) was 0.125 µg/mL. The MIC (S. aureus; S. aureus Misk MRSA 38) was 0.125 µg/mL, the MIC (S. aureus; S. aureus SG 511, MRSA, 63) was 1 µg/mL and the MIC (S. epidermidis; S. epidermidis 823, Teicho^R, 230) was 0.25 µg/mL. It also gave an MIC (S. epidermidis; S. epidermidis 2361 W, 246) of 0.25 µg/mL, an MIC (S. epidermidis; S. epidermidis 4264 I (1) W, 247) of 0.125 µg/mL and an MIC (S. epidermidis; S. epidermidis 6098, Erythro^R, 233) of over 1 µg/mL. It also gave an MIC (S. epidermidis; S. epidermidis 6729 II W, Erythro^R, 236) of 0.125 µg/mL and an MIC (S. epidermidis; S. epidermidis Pat 01 IV, 251) of 0.25 µg/mL.
In the case of C=C(NC(=O)c1csc(C2=NC3c4csc(n4)C4NC(=O)c5csc(n5)C(C(C)(O)C(C)O)NC(=O)C5CSC(=N5)/C(=C\C)NC(=O)C(C(C)O)NC(=O)c5csc(n5)C3(CC2)NC(=O)C(C)NC(=O)C(=C)NC(=O)C(C)NC(=O)C(C(C)C)NC2C=Cc3c(C(C)O)cc(nc3C2O)C(=O)OC4C)n1)C(=O)NC(C)C(N)=O (stereo not shown) [Compound of Formula I(b)], the “Minimal Inhibitory Concentration” value (E. faecium) is reported as 2 µg/mL, the Solubility [1, 4] is reported as “Soluble” and the Solubility ([1]; in water) is reported as “insoluble”. The “% reduction in RLU” value (M. tuberculosis H37Rv; 0.5 μg/mL) was 28.87%, the “% reduction in RLU” value (M. tuberculosis H37Rv; 5 μg/mL) was 54.83% and the “% reduction in RLU” value (M. tuberculosis H37Rv; 10 μg/mL) was 76.73%. The “Minimal Inhibitory Concentration” value (S. aureus; [5]) was 0.25 to 0.5 µg/mL and the “Minimal Inhibitory Concentration” value (S. aureus; [6]) was 2 µg/mL.
